Bridge positions count the residues as written; N and C are the ends. Square brackets hold non-standard residues; d marks the D form. Peptide text beside a SMILES is read from it. Nle = CCCC[C@H](N)C(=O)O; βAla = NCCC(=O)O
experiment: RP-HPLC capacity factor; assay type: physicochemical; conditions: Grace Vydac C-18, 20 min gradient of 18–28% acetonitrile in 20 mM HCl, 1 mL/min

Compound	capacity factor (k′)
CCCC[C@@H]1NC(=O)C[C@@H](C(=O)NCCC(=O)N[C@@H](CS)C(=O)N[C@@H](CS)C(=O)N[C@@H](CCC(=O)O)C(=O)N[C@@H](Cc2c[nH]cn2)C(=O)N[C@H](Cc2ccccc2)C(=O)N[C@@H](CCCNC(=N)N)C(=O)N[C@@H](Cc2c[nH]c3ccccc23)C(=O)N[C@@H](CS)C(=O)N[C@@H](CCCNC(=N)N)C(=O)N2CCC[C@H]2C(=O)N[C@H](C(N)=O)C(C)C)NC(=O)[C@@H](Cc2ccc(O)cc2)NC(=O)[C@H](CC(=O)O)NC(=O)[C@H](C)NC1=O [peptide 5, NAD-β-Ala-(Arg^11)CCMSH] ([Nle]AD[dY]D[βAla]CCEH[dF]RWCRPV-NH2; lactam N-5)	3.17
CC(C)[C@H](NC(=O)[C@@H]1CCCN1C(=O)[C@H](CCCNC(=N)N)NC(=O)[C@H](CS)NC(=O)[C@H](Cc1c[nH]c2ccccc12)NC(=O)[C@H](CCCNC(=N)N)NC(=O)[C@@H](Cc1ccccc1)NC(=O)[C@H](Cc1c[nH]cn1)NC(=O)[C@H](CCC(=O)O)NC(=O)[C@H](CS)NC(=O)[C@H](CS)NC(=O)CCNC(=O)[C@@H]1CC(=O)N[C@@H](CCC(=O)O)C(=O)N[C@@H](C)C(=O)N[C@@H](CC(=O)O)C(=O)N[C@H](Cc2ccc(O)cc2)C(=O)N1)C(N)=O [peptide 6, EAD-β-Ala-(Arg^11)CCMSH] (EAD[dY]D[βAla]CCEH[dF]RWCRPV-NH2; lactam N-5)	2.28
CC(C)[C@H](NC(=O)[C@@H]1CCCN1C(=O)[C@H](CCCNC(=N)N)NC(=O)[C@H](CS)NC(=O)[C@H](Cc1c[nH]c2ccccc12)NC(=O)[C@H](CCCNC(=N)N)NC(=O)[C@@H](Cc1ccccc1)NC(=O)[C@H](Cc1c[nH]cn1)NC(=O)[C@H](CCC(=O)O)NC(=O)[C@H](CS)NC(=O)[C@H](CS)NC(=O)CCNC(=O)[C@@H]1CC(=O)N[C@@H](CCCNC(=N)N)C(=O)N[C@@H](C)C(=O)N[C@@H](CC(=O)O)C(=O)N[C@H](Cc2ccc(O)cc2)C(=O)N1)C(N)=O [peptide 4, RAD-β-Ala-(Arg^11)CCMSH] (RAD[dY]D[βAla]CCEH[dF]RWCRPV-NH2; lactam N-5)	3.32
CC(C)[C@H](NC(=O)[C@@H]1CCCN1C(=O)[C@H](CCCNC(=N)N)NC(=O)[C@H](CS)NC(=O)[C@H](Cc1c[nH]c2ccccc12)NC(=O)[C@H](CCCNC(=N)N)NC(=O)[C@@H](Cc1ccccc1)NC(=O)[C@H](Cc1c[nH]cn1)NC(=O)[C@H](CCC(=O)O)NC(=O)[C@H](CS)NC(=O)[C@H](CS)NC(=O)CCNC(=O)[C@@H]1CC(=O)N[C@@H](CCCNC(=N)N)C(=O)N[C@@H](CO)C(=O)N[C@@H](CC(=O)O)C(=O)N[C@H](Cc2ccc(O)cc2)C(=O)N1)C(N)=O [peptide 1, RSD-β-Ala-(Arg^11)CCMSH] (RSD[dY]D[βAla]CCEH[dF]RWCRPV-NH2; lactam N-5)	1.35

Results, then the compound that gave them:

capacity factor (k′)	Compound
0.98	CC(C)[C@H](NC(=O)[C@@H]1CCCN1C(=O)[C@H](CCCNC(=N)N)NC(=O)[C@H](CS)NC(=O)[C@H](Cc1c[nH]c2ccccc12)NC(=O)[C@H](CCCNC(=N)N)NC(=O)[C@@H](Cc1ccccc1)NC(=O)[C@H](Cc1c[nH]cn1)NC(=O)[C@H](CCC(=O)O)NC(=O)[C@H](CS)NC(=O)[C@H](CS)NC(=O)CCNC(=O)[C@@H]1CC(=O)N[C@@H](CCCNC(=N)N)C(=O)N[C@@H]([C@@H](C)O)C(=O)N[C@@H](CC(=O)O)C(=O)N[C@H](Cc2ccc(O)cc2)C(=O)N1)C(N)=O [peptide 2, RTD-β-Ala-(Arg^11)CCMSH] (RTD[dY]D[βAla]CCEH[dF]RWCRPV-NH2; lactam N-5)
1.94	CC(C)[C@H](NC(=O)[C@@H]1CCCN1C(=O)[C@H](CCCNC(=N)N)NC(=O)[C@H](CS)NC(=O)[C@H](Cc1c[nH]c2ccccc12)NC(=O)[C@H](CCCNC(=N)N)NC(=O)[C@@H](Cc1ccccc1)NC(=O)[C@H](Cc1c[nH]cn1)NC(=O)[C@H](CCC(=O)O)NC(=O)[C@H](CS)NC(=O)[C@H](CS)NC(=O)CCNC(=O)[C@@H]1CC(=O)N[C@@H](CCCNC(=N)N)C(=O)N[C@@H](C(C)C)C(=O)N[C@@H](CC(=O)O)C(=O)N[C@H](Cc2ccc(O)cc2)C(=O)N1)C(N)=O [peptide 3, RVD-β-Ala-(Arg^11)CCMSH] (RVD[dY]D[βAla]CCEH[dF]RWCRPV-NH2; lactam N-5)

Source: article PMC4234429 (Journal of Medicinal Chemistry, 2014)
